Experimental data reported in ChEMBL document CHEMBL4339199 (ACS Med Chem Lett, 2019).
The source made the active and inactive calls. The rule behind the calls is not given here.

Assays:
[1] = target: T1, Tyrosine-protein kinase JAK3 (Homo sapiens, UniProt P52333); test: Inhibition of GST-tagged JAK3 (unknown origin) using fluoresceinated peptide as substrate measured after 3 hrs by electrophoresis method
T1 sequence (P52333 whole entry): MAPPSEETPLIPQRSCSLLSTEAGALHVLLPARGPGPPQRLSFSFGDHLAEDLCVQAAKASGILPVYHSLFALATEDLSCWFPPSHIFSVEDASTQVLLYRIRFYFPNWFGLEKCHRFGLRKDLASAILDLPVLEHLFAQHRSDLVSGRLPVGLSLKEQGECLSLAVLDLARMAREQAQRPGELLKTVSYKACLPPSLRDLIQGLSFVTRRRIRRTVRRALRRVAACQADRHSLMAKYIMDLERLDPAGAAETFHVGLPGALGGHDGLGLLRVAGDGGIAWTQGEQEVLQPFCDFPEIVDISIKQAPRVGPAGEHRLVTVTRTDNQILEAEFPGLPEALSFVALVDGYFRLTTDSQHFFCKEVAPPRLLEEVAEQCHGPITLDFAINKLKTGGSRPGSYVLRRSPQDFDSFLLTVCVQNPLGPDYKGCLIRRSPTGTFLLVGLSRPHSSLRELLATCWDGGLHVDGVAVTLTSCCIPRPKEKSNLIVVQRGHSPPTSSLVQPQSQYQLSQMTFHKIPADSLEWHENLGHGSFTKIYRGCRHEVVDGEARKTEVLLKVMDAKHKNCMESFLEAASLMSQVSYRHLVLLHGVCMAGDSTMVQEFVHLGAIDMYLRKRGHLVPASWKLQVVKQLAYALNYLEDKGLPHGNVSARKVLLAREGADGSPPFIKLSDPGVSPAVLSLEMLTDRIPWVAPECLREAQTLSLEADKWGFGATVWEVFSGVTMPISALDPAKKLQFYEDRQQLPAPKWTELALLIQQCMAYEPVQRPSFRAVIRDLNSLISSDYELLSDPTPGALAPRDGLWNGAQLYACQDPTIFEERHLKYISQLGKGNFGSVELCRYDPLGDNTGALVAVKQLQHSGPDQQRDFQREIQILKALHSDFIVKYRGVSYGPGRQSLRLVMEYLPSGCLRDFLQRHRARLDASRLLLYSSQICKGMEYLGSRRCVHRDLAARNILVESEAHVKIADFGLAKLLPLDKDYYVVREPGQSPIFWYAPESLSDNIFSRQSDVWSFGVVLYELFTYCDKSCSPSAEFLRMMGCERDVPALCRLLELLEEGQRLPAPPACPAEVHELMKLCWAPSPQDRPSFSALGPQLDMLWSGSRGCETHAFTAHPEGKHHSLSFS

[2] = target: Non-receptor tyrosine-protein kinase TYK2 (Homo sapiens, UniProt P29597); test: Inhibition of […] TYK2 (unknown origin) using fluoresceinated peptide as substrate measured after 3 hrs by electrophoresis method
Non-receptor tyrosine-protein kinase TYK2, sequence (P29597 whole entry): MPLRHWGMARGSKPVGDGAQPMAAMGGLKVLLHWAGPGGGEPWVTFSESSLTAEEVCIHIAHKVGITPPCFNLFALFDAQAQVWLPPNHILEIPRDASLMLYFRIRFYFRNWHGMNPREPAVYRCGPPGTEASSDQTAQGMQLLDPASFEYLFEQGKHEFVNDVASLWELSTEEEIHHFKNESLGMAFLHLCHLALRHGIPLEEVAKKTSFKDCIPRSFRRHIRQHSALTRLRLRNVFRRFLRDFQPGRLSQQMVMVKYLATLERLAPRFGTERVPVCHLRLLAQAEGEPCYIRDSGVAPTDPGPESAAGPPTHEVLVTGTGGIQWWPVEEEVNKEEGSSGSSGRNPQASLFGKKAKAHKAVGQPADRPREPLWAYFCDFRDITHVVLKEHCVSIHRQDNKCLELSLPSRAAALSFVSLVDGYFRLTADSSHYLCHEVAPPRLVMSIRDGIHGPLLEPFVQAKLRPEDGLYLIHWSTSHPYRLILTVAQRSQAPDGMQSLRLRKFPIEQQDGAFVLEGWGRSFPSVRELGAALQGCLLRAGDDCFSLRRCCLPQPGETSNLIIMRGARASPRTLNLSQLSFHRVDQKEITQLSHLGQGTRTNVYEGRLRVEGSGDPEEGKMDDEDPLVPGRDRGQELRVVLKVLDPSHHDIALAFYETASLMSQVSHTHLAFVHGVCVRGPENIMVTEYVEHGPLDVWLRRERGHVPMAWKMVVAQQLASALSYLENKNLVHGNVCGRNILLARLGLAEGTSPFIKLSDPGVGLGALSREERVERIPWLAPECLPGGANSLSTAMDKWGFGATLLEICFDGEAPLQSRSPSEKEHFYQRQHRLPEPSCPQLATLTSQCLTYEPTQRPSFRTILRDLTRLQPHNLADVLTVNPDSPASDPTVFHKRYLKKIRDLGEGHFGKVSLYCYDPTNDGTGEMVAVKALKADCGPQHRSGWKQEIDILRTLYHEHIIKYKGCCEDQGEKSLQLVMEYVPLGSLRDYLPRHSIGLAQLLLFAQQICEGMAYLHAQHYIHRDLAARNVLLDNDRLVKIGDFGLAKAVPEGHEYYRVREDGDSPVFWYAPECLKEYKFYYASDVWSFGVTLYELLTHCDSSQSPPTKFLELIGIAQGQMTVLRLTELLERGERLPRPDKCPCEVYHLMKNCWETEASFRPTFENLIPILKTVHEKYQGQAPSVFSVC

[3] = target: Tyrosine-protein kinase JAK2 (Homo sapiens, UniProt O60674); test: Inhibition of GST-tagged JAK2 (unknown origin) using fluoresceinated peptide as substrate measured after 3 hrs by electrophoresis method
Tyrosine-protein kinase JAK2, sequence (O60674 whole entry): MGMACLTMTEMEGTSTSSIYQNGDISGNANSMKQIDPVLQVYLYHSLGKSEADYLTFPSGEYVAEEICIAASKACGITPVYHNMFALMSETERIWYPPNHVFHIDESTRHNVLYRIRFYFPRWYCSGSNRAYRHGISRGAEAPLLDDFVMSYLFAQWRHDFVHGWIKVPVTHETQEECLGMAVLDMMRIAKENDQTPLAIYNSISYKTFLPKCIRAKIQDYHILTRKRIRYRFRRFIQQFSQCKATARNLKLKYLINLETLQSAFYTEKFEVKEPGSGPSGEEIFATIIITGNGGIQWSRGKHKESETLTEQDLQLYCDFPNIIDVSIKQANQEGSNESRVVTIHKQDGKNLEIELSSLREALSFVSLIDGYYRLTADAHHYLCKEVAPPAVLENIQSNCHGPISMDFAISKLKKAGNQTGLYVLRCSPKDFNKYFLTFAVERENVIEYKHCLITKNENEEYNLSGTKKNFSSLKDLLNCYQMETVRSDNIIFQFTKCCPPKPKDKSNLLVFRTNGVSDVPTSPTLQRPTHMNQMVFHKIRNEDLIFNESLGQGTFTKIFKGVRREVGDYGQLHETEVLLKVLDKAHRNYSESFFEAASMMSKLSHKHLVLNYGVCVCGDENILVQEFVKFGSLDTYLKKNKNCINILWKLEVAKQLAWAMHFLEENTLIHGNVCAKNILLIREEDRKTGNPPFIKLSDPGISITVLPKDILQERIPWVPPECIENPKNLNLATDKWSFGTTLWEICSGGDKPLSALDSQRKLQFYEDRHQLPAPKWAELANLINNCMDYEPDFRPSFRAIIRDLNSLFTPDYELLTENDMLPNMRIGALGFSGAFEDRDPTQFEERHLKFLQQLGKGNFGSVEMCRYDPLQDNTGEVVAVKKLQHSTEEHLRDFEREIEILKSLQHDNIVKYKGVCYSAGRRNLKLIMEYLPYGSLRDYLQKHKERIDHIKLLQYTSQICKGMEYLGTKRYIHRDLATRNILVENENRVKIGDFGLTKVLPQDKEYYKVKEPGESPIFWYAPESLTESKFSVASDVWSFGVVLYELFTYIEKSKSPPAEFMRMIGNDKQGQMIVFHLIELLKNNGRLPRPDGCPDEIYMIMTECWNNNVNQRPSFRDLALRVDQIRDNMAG

[4] = test system: T-cell; test: Inhibition of IL2-induced human PBMC-derived T cell proliferation preincubated for 60 mins followed by IL-2 stimulation and measured after 3 days by [3H]thymidine incorporation based topcount method; format: functional
[5] = Octanol-water partition coefficient, log P of the compound at pH 6.5 by HPLC analysis; format: physicochemical
[6] = target: Tyrosine-protein kinase JAK1 (Homo sapiens, UniProt P23458); test: Inhibition of GST-tagged JAK1 (unknown origin) using fluoresceinated peptide as substrate measured after 3 hrs by electrophoresis method
Tyrosine-protein kinase JAK1, sequence (P23458 whole entry): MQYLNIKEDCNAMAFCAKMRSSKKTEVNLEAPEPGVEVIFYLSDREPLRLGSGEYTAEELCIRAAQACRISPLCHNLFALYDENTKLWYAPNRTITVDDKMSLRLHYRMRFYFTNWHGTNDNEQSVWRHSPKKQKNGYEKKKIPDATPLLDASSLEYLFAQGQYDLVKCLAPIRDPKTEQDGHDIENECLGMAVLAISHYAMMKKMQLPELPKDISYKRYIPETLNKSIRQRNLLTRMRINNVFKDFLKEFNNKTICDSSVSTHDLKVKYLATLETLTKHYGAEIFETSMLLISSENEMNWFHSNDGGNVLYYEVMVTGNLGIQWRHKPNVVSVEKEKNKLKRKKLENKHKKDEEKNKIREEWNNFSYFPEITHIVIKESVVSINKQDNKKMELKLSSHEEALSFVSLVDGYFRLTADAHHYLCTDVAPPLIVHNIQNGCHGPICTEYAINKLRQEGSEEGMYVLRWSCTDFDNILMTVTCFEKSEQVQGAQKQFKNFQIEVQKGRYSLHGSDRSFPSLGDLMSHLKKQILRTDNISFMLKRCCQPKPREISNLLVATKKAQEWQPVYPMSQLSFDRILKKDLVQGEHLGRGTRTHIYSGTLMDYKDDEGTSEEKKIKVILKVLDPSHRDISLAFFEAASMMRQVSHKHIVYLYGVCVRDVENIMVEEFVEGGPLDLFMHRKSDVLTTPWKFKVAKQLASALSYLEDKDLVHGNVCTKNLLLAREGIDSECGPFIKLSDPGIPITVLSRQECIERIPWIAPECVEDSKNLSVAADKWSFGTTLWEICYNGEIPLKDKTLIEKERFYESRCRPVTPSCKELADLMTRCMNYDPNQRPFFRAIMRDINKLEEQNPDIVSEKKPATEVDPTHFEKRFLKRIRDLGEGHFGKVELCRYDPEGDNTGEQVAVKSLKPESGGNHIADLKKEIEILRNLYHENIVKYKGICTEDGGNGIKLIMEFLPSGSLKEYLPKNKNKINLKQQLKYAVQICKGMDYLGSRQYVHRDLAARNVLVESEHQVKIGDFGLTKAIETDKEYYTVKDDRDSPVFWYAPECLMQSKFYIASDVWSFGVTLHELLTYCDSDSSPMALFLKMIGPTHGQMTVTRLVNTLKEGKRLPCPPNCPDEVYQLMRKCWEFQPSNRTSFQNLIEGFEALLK

[7] = Solubility of the compound in water; format: physicochemical; conditions: buffer
[8] = test system: Mus musculus; test: Antiinflammatory activity in DBA1 mouse model of collagen-induced inflammation assessed as reduction in rheumatoid arthritis score in paw administered daily via oral gavage for 21 days starting from 21 days post-immunization and measured 3 times every week following booster immunization; format: functional, organism-based
[9] = Prodrug conversion in DBA1 mouse assessed as 4-((2R,3R)-l,3-Dihydroxybutan-2-ylamino)-6-phenylpyrrolo [ 1,2-b]pyridazine-3 carboxamide formation at 140 mg/kg, po administered via gavage; format: ADME, organism-based; conditions: in vivo
[10] = AUC in mouse at 40 mg/kg, po; format: ADME, organism-based; conditions: in vivo
[11] = AUC in mouse at 10 mg/kg, po; format: ADME, organism-based; conditions: in vivo
[12] = test system: Blood; test: Inhibition of IL2-induced IFNgamma production in CD3/CD28 antibody-stimulated human whole blood measured after 18 hrs by ELISA; format: functional, tissue-based
[13] = Aqueous solubility of the compound; format: physicochemical; conditions: buffer
[14] = Stability in mouse microsomes assessed as parent compound remaining measured after 10 mins; format: ADME, Microsome; conditions: read-out: Stability
[15] = test system: Mus musculus; test: Antiinflammatory activity in DBA1 mouse model of collagen-induced inflammation assessed as reduction in rheumatoid arthritis score in paw at 6.6 mg/kg administered daily via oral gavage for 21 days starting from 21 days post-immunization and measured 3 times every week following booster immunization; format: functional, organism-based

| SMILES | IC50 [1] | IC50 [2] | IC50 [3] | IC50 ([4]; Homo sapiens, T-cell) | IC50 [6] | IC50 [12] | further results |
| --- | --- | --- | --- | --- | --- | --- | --- |
| COc1ccc(-c2cc3c(N[C@H](CO)[C@@H](C)O)c(C(N)=O)cnn3c2)cn1 | 2 nM | 27 nM | 57 nM | 370 nM | – | – | logD [5]: 2.2 |
| C[C@@H](O)[C@H](CO)Nc1c(C(N)=O)cnn2cc(-c3ccccc3)cc12 | 180 nM | 510 nM | 1700 nM | 1800 nM | 110 nM | – | – |
| C[C@@H](O)[C@@H](COP(=O)([O-])[O-])Nc1c(C(N)=O)cnn2cc(-c3ccccc3)cc12.[Na+].[Na+] | – | – | – | – | – | – | solubility [7]: Soluble; Activity [8]: Dose-dependent effect; Drug metabolism [9]: Metabolite_Detected; AUC [10]: 6 µM·h; AUC [11]: 1 µM·h |
| COc1ccc(-c2cc3c(N[C@H](CO)CC(C)C)c(C(N)=O)cnn3c2)cn1 | 3 nM | 180 nM | 30 nM | 190 nM | 23 nM | 3.9 µM | – |
| C[C@H](O)[C@H](CO)Nc1c(C(N)=O)cnn2cc(-c3ccccc3)cc12 | 160 nM | 1300 nM | 1800 nM | 2000 nM | 180 nM | – | – |
| CC(C)Nc1c(C(N)=O)cnn2cc(-c3ccccc3)cc12 | 15 nM | 150 nM | 190 nM | – | 40 nM | > 4 µM | solubility [13]: < 1 µg/mL; remaining at 10 min [14]: < 50% |
| C[C@@H]1CCN(C(=O)CC#N)C[C@@H]1N(C)c1ncnc2[nH]ccc12 | – | – | – | – | – | – | Activity [15]: Active |
| C[C@H](O)[C@@H](CO)Nc1c(C(N)=O)cnn2cc(-c3ccccc3)cc12 | 13 nM | 210 nM | 370 nM | 870 nM | 38 nM | – | – |
| COc1ccc(-c2cc3c(NC(CO)[C@H](O)C4CC4)c(C(N)=O)cnn3c2)cn1 (stereo in doubt; 19) | 2 nM | 130 nM | 45 nM | – | 21 nM | 0.73 µM | IC50 ([4]; t-cell): 500 nM |
